Results taken from patent publication US20250320184A1 (SIRONAX LTD., priority 2022, published 2025).
pIC50: −log10 of the molar value.

The molecules below were run against T1, SARM1 (50-724) (Homo sapiens, UniProt Q6SZW1) (assay: biochemical).
T1 sequence (Q6SZW1 50-724): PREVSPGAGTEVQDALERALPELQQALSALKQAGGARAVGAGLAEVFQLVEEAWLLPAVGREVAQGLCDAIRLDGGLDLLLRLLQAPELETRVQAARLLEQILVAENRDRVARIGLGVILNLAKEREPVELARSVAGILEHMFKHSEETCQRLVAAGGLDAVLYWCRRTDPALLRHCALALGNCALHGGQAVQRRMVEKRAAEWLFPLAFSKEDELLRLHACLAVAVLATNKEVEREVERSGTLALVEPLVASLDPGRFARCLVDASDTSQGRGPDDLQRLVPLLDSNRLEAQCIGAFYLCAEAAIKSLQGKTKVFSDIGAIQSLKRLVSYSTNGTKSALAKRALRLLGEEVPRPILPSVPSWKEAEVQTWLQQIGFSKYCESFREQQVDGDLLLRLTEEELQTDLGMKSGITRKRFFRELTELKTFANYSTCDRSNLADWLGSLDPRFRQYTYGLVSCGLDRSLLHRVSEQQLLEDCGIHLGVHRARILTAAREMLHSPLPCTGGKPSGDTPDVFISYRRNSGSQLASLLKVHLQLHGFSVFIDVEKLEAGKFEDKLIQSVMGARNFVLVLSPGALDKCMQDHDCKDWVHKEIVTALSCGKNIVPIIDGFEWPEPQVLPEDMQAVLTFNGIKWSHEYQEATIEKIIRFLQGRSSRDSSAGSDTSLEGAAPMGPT
Experimental: An enzymatic assay was performed in a 384-well plate using Dulbecco's phosphate-buffered saline (PBS) as the reaction buffer. […] The reaction was initiated by adding a mixture of 200 μM nicotinamide mononucleotide (NMN) as activator and 100 μM NAD^+ as substrate. After 1 h of incubation at room temperature, the reaction was terminated with 10 times volume of 70% acetonitrile, then centrifuged at 3800 rpm for 10 min.

SMILES | pIC50
CC1(C)C(=O)N(CC(=O)N2CCOCC2)c2cc(NS(=O)(=O)c3cccc(Cl)c3Cl)ccc21 [Example 291, 2,3-dichloro-N-(3,3-dimethyl-1-(2-morpholino-2-oxoethyl)-2-oxoindolin-6-yl)benzenesulfonamide] | > 7.00
Cc1c(F)cccc1S(=O)(=O)Nc1cccc(-c2ccccn2)c1 [Example 160, 3-fluoro-2-methyl-N-(3-(pyridin-2-yl)phenyl)benzenesulfonamide] | 6.00 to 6.30
Cc1nn(CCO)c2cc(NC(C)c3nc(Cl)c(Cl)s3)ccc12 (racemic) [Compound 301, 2-(6-((1-(4,5-dichlorothiazol-2-yl)ethyl)amino)-3-methyl-1H-indazol-1-yl)ethan-1-ol] | > 7.00
CC(Nc1cc(F)c2ncn(C3CC(O)C3)c(=O)c2c1)c1cncc(Cl)c1Cl (mixture of isomers) [Compound 348, 6-((1-(4,5-dichloropyridin-3-yl)ethyl)amino)-8-fluoro-3-(3-hydroxycyclobutyl)quinazolin-4(3H)-one] | > 7.00
CC1N(C(=O)CC(N)=O)c2cc(NS(=O)(=O)c3cccc(Cl)c3Cl)ccc2C1(C)C (racemic) [Compound 329, 3-(6-((2,3-dichlorophenyl)sulfonamido)-2,3,3-trimethylindolin-1-yl)-3-oxopropanamide] | > 7.00
O=C1NC(CO)CCc2ccc(NS(=O)(=O)c3cccc(Cl)c3Cl)cc21 (single isomer, unassigned) [Compound 304B] | 6.00 to 6.30
NC(=O)Cc1ccc(NS(=O)(=O)c2cccc(Cl)c2Cl)cc1 [Compound 31, 2-(4-((2,3-dichlorophenyl)sulfonamido)phenyl)acetamide] | 6.30 to 7.00
CC(Nc1ccc2c(C(F)F)n(CC(N)=O)nc2c1)c1nc(Cl)c(Cl)s1 (single isomer, unassigned) [Compound 355B] | < 6.00
CC1(C)C(=O)N(CCC(N)=O)c2cc(NS(=O)(=O)c3cccc(Cl)c3Cl)ccc21 [Compound 279, 3-(6-((2,3-dichlorophenyl)sulfonamido)-3,3-dimethyl-2-oxoindolin-1-yl)propanamide] | > 7.00
O=S(=O)(Nc1ccc2csnc2c1)c1cccc(Cl)c1Cl [Compound 59, N-(benzo[c]isothiazol-6-yl)-2,3-dichlorobenzenesulfonamide] | 6.30 to 7.00
Cc1c2c(F)cc(NC(C)c3nc(Cl)c(Cl)s3)cc2nn1CC(N)=O (racemic) [Compound 389, 2-(6-((1-(4,5-dichlorothiazol-2-yl)ethyl)amino)-4-fluoro-3-methyl-2H-indazol-2-yl)acetamide] | > 7.00
CC(Nc1cc(F)c2c(c1)C(=O)N(CC(N)=O)C2(C)C)c1nc(Cl)c(Cl)s1 (racemic) [Compound 328, 2-(5-((1-(4,5-dichlorothiazol-2-yl)ethyl)amino)-7-fluoro-1,1-dimethyl-3-oxoisoindolin-2-yl)acetamide] | > 7.00
CC1(C)CC(=O)c2cc(NS(=O)(=O)c3cccc(Cl)c3Cl)ccc21 [Compound 264, 2,3-dichloro-N-(1,1-dimethyl-3-oxo-2,3-dihydro-1H-inden-5-yl)benzenesulfonamide] | > 7.00
Cc1c(F)cccc1S(=O)(=O)Nc1ccc2c(c1)CC(=O)NC2 [Compound 7, 3-fluoro-2-methyl-N-(3-oxo-1,2,3,4-tetrahydroisoquinolin-6-yl)benzenesulfonamide] | < 6.00
O=C1NCCc2ccc(NS(=O)(=O)N3CCCC4CCCCC43)cc21 (mixture of isomers) [Example 170, N-(1-oxo-1,2,3,4-tetrahydroisoquinolin-7-yl)octahydroquinoline-1(2H)-sulfonamide] | < 6.00
CC(Nc1ccc2c(c1)NC(=O)OC2(C)C)c1nc(Cl)c(Cl)s1 (racemic) [Compound 258, 7-((1-(4,5-dichlorothiazol-2-yl)ethyl)amino)-4,4-dimethyl-1,4-dihydro-2H-benzo[d][1,3]oxazin-2-one] | > 7.00
Cc1nc(C(C)Nc2ccc3c(C)n(CC(N)=O)nc3c2)sc1Cl (single isomer, unassigned) [Compound 363] | < 6.00
CC1(C)C(=O)N(CC(=O)O)c2cc(NS(=O)(=O)c3cccc(Cl)c3Cl)ccc21 [Compound 241, 2-[6-[(2,3-dichlorophenyl)sulfonylamino]-3,3-dimethyl-2-oxo-indolin-1-yl]acetic Acid] | > 7.00
CC1(C)C(=O)Nc2cc(NS(=O)(=O)c3c(Cl)ccc(Cl)c3Cl)ccc21 [Compound 209, 2,3,6-trichloro-N-(3,3-dimethyl-2-oxoindolin-6-yl)benzenesulfonamide] | > 7.00
CC1(C)CN(C(=O)c2cccnc2)c2cc(NS(=O)(=O)c3cccc(Cl)c3Cl)ccc21 [Compound 285, 2,3-dichloro-N-(3,3-dimethyl-1-nicotinoylindolin-6-yl)benzenesulfonamide] | > 7.00
O=C1NCCc2ccc(NS(=O)(=O)c3cccc(Cl)c3Cl)cc21 [Compound 20, 2,3-dichloro-N-(1-oxo-1,2,3,4-tetrahydroisoquinolin-7-yl)benzenesulfonamide] | > 7.00
O=C1NCCc2ccc(NS(=O)(=O)c3cc(F)c(F)cc3F)cc21 [Compound 35, 2,4,5-trifluoro-N-(1-oxo-1,2,3,4-tetrahydroisoquinolin-7-yl)benzenesulfonamide] | < 6.00
Cc1c(F)cccc1S(=O)(=O)Nc1cccc(N2CCCC2=O)c1 [Compound 27, 3-fluoro-2-methyl-N-(3-(2-oxopyrrolidin-1-yl)phenyl)benzenesulfonamide] | < 6.00
Cc1c2ccc(NC(C)c3snc(Cl)c3Cl)cc2nn1CC(N)=O (single isomer, unassigned) [Compound 341B] | < 6.00

Other lines, results leading:

pIC50 | SMILES
6.30 to 7.00 | CC(Nc1ccc2c(c1)C(=O)NCN2)c1ccc(F)c(Cl)c1Cl (racemic) [Example 157, 6-((1-(2,3-dichloro-4-fluorophenyl)ethyl)amino)-2,3-dihydroquinazolin-4(1H)-one]
> 7.00 | O=c1[nH]ccc2ccc(NC(CCO)c3cccc(Cl)c3Cl)cc12 (racemic) [Compound 252, 7-((1-(2,3-dichlorophenyl)-3-hydroxypropyl)amino)isoquinolin-1(2H)-one]
6.30 to 7.00 | CC(Nc1ccc2cc[nH]c(=O)c2c1)c1cnc(Cl)c(Cl)c1 (racemic) [Example 107, 7-((1-(5,6-dichloropyridin-3-yl)ethyl)amino)isoquinolin-1(2H)-one]
< 6.00 | Cc1nn(CC(N)=O)c(=O)c2cc(NC(C)c3nc(Cl)c(Cl)s3)ccc12 (single isomer, unassigned) [Compound 358]
< 6.00 | CC(Nc1ccc2ccn(C)c(=O)c2c1)c1ncc(Cl)s1 (racemic) [Compound 182, 7-((1-(5-chlorothiazol-2-yl)ethyl)amino)-2-methylisoquinolin-1(2H)-one]
> 7.00 | CCC(Nc1ccc2nc[nH]c(=O)c2c1)c1cccc(Cl)c1Cl (racemic) [Example 146, 6-[1-(2,3-dichlorophenyl)propylamino]-3H-quinazolin-4-one]
> 7.00 | CC(Nc1cc(F)c2nc[nH]c(=O)c2c1)c1nccc(Cl)c1Cl (racemic) [Compound 352, 6-((1-(3,4-dichloropyridin-2-yl)ethyl)amino)-8-fluoroquinazolin-4(3H)-one]
> 7.00 | CC(Nc1ccc2c(c1)c(C(=O)NCCO)nn2C)c1c(Cl)ccc(F)c1Cl (racemic) [Compound 282, 5-((1-(2,6-dichloro-3-fluorophenyl)ethyl)amino)-N-(2-hydroxyethyl)-1-methyl-1H-indazol-3-carboxamide]
< 6.00 | CC(Nc1ccc2cc[nH]c(=O)c2c1)c1nccc(Cl)c1Cl (single isomer, unassigned) [Example 194B]
> 7.00 | CC(Nc1cc(F)c2nc[nH]c(=O)c2c1)c1nc(Cl)c(Cl)s1 (racemic) [Compound 271, 6-((1-(4,5-dichlorothiazol-2-yl)ethyl)amino)-8-fluoroquinazolin-4(3H)-one]
> 7.00 | CC(Nc1ccc2c(c1)c(N)nn2C)c1nc(Cl)c(Cl)s1 (stereo not shown) [Compound 288, N5-(1-(4,5-dichlorothiazol-2-yl)ethyl)-1-methyl-1H-indazole-3,5-diamine]
6.00 to 6.30 | CC(Nc1ccc2nc[nH]c(=O)c2c1)c1cccc(Cl)c1Cl (single isomer, unassigned) [Example 152A]
6.30 to 7.00 | Cc1nc(C(C)Nc2ccc3cc[nH]c(=O)c3c2)c(Cl)n1C (racemic) [Compound 214, 7-((1-(5-chloro-1,2-dimethyl-1H-imidazol-4-yl)ethyl)amino)isoquinolin-1(2H)-one]
< 6.00 | Cc1ccc(C(C)Nc2ccc3c(c2)C(=O)NCC3)cc1F (racemic) [Example 123, 7-((1-(3-fluoro-4-methylphenyl)ethyl)amino)-3,4-dihydroisoquinolin-1(2H)-one]
< 6.00 | CC(Nc1ccc2cc[nH]c(=O)c2c1)c1ccc(Cl)cc1 (racemic) [Example 116, 7-((1-(4-chlorophenyl)ethyl)amino)isoquinolin-1(2H)-one]
6.00 to 6.30 | CC(Nc1ccc2cc[nH]c(=O)c2c1)c1cccc(F)c1 (racemic) [Example 113, 7-((1-(3-fluorophenyl)ethyl)amino)isoquinolin-1(2H)-one]
